The values below are quoted from earlier work in patent US11660346B2, “Engineered microparticles for macromolecule delivery” (University of Pittsburgh-Of the Commonwealth System of …, priority 2009, dated 2023).

Each structure is given as a SMILES string.

The conditions of this data set: parameter for polyanhydride disk prediction, FIG. 10.

For the molecule `CCCCN1CCCCC1C(=O)Nc1c(C)cccc1C` (centres unmarked) [bupivacaine], the “kdis (intrinsic dissolution rate constant)” value is on record as 0.046 mol/m^3 s. For the same molecule, where the note is “aqueous”, the “CAmx (maximum solubility of agent)” value is reported as 2.184 mol/m^3.
